The text below walks through data of patent US9956220B2, “Imidazo-pyridazine derivatives as casein kinase 1 δ/ϵ inhibitors” (Bristol-Myers Squibb Company, priority 2014, dated 2018).

The target in assay [1] is CK1ϵ (Homo sapiens, UniProt P49674). As to the kind of experiment: CK1ϵ kinase assay (Caliper LABCHIP electrophoretic separation of fluoresceinated peptide substrate and product). The assay is classed as biochemical. The following applies: 200 pM CK1ϵ, 50 μM ATP, 1.5 μM peptide substrate, 22 hours at room temperature; read-out: CK1ε (IC50). As to the method: (§1) CK1ϵ and CK1δ Kinase Assays
CK1ϵ, sequence (P49674 whole entry): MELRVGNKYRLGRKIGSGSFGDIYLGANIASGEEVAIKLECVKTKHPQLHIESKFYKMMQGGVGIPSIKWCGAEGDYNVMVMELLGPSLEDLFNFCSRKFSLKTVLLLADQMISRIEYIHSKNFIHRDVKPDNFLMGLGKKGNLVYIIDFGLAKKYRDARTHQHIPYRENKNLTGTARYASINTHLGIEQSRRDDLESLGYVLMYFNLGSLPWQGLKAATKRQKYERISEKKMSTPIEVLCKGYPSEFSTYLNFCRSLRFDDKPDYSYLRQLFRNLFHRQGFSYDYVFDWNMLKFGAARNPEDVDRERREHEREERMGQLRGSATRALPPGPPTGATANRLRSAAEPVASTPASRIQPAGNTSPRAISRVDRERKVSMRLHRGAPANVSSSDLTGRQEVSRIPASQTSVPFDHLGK
(§2) The kinase assay was performed in V-bottom 384-well plates.
(§3) The reaction was incubated at room temperature for 22 hours and terminated by adding 45 μl of 35 mM EDTA to each sample. The reaction mixture was analyzed on the Caliper LABCHIP®3000 (Caliper, Hopkinton, Mass.) by electrophoretic separation of the unphosphorylated substrate and phosphorylated product. […] Compounds were dissolved at 10 mM in dimethylsulfoxide (DMSO) and evaluated at eleven concentrations. IC50 values were derived by non-linear regression analysis.

Assay [2] concerns the target CK1δ (Homo sapiens, UniProt P48730). As to the kind of experiment: CK1δ kinase assay (Caliper LABCHIP electrophoretic separation of fluoresceinated peptide substrate and product). It counts as biochemical. The following applies: 200 pM CK1δ, 50 μM ATP, 1.5 μM peptide substrate, 22 hours at room temperature. The protocol: as §1, §2, §3

A word on the IC50: it is the concentration needed to halve the response being measured.

The structures appear in SMILES notation.

CK1δ, sequence (P48730 whole entry): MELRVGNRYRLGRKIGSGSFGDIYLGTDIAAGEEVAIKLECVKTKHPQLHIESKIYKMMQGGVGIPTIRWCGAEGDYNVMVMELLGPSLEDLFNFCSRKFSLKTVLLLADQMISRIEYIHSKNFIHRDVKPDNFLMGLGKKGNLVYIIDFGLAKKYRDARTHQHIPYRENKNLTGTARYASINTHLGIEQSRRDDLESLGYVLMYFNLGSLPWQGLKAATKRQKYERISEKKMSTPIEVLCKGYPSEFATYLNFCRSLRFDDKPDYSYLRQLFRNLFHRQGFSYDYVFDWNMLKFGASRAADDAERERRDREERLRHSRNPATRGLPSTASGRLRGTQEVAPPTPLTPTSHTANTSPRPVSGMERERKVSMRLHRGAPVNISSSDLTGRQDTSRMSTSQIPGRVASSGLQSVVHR

For the compound `O=C(Nc1cn2nc(-c3c(-c4ccc(F)cc4)nn4c3CN(C3CCC3)CC4)ccc2n1)c1ccnc(F)c1` [Example 29, N-(6-(5-Cyclobutyl-2-(4-fluorophenyl)-4,5,6,7-tetrahydropyrazolo[1,5-a]pyrazin-3-yl)imidazo[1,2-b]pyridazin-2-yl)-2-fluoroisonicotinamide], the IC50 in assay [1] is 6 nM; in assay [2], 0.4 nM.

Regarding `O=C(Nc1cn2nc(-c3c(-c4ccc(F)cc4)nn4c3CN(C3COC3)CC4)ccc2n1)c1ccnc(F)c1` [Example 30, 2-Fluoro-N-(6-(2-(4-fluorophenyl)-5-(oxetan-3-yl)-4,5,6,7-tetrahydropyrazolo[1,5-a]pyrazin-3-yl)imidazo[1,2-b]pyridazin-2-yl)isonicotinamide], the figures for the IC50 in assay [1] and in assay [2] were 6.5 nM and 0.5 nM, respectively.

Take `O=C(Nc1cn2nc(-c3c(-c4ccc(F)cc4)nn4c3CN(C3CC3)CC4)ccc2n1)c1ccnc(F)c1` [Example 31, N-(6-(5-Cyclopropyl-2-(4-fluorophenyl)-4,5,6,7-tetrahydropyrazolo[1,5-a]pyrazin-3-yl)imidazo[1,2-b]pyridazin-2-yl)-2-fluoroisonicotinamide]: the IC50 in assay [1] was determined as 1.1 nM; in assay [2], 0.1 nM.

With `O=C(Nc1cn2nc(-c3c(-c4ccc(F)cc4)nn4c3CN(CC(F)F)CC4)ccc2n1)c1ccnc(F)c1` [Example 32, N-(6-(5-(2,2-Difluoroethyl)-2-(4-fluorophenyl)-4,5,6,7-tetrahydropyrazolo[1,5-a]pyrazin-3-yl)imidazo[1,2-b]pyridazin-2-yl)-2-fluoroisonicotinamide], the IC50 was 1.5 nM in assay [1] and 0.3 nM in assay [2].

Consider `COC(=O)N1CCn2nc(-c3ccc(F)cc3)c(-c3ccc4nc(NC(=O)c5ccnc(F)c5)cn4n3)c2C1` [Example 33, Methyl 3-(2-(2-fluoroisonicotinamido)imidazo[1,2-b]pyridazin-6-yl)-2-(4-fluorophenyl)-6,7-dihydropyrazolo[1,5-a]pyrazine-5(4H)-carboxylate], for which the IC50 in assay [1] worked out at 1.9 nM; in assay [2], 0.3 nM.

With `CC(C)OC(=O)N1CCn2nc(-c3ccc(F)cc3)c(-c3ccc4nc(NC(=O)c5ccnc(F)c5)cn4n3)c2C1` [Example 34, Isopropyl 3-(2-(2-fluoroisonicotinamido)imidazo[1,2-b]pyridazin-6-yl)-2-(4-fluorophenyl)-6,7-dihydropyrazolo[1,5-a] pyrazine-5(4H)-carboxylate], the results for the IC50 in assay [1] and in assay [2] were 6.5 nM and 1 nM, respectively.

Take `CS(=O)(=O)N1CCn2nc(-c3ccc(F)cc3)c(-c3ccc4nc(NC(=O)c5ccnc(F)c5)cn4n3)c2C1` [Example 35, 2-Fluoro-N-(6-(2-(4-fluorophenyl)-5-(methylsulfonyl)-4,5,6,7-tetrahydropyrazolo[1,5-a]pyrazin-3-yl)imidazo[1,2-b]pyridazin-2-yl)isonicotinamide]: the results for the IC50 in assay [1] and in assay [2] were 0.8 nM and 0.2 nM, respectively.

With `O=C(Nc1cn2nc(-c3c(-c4ccc(F)cc4)nn4c3CN(S(=O)(=O)C3CC3)CC4)ccc2n1)c1ccnc(F)c1` [Example 36, N-(6-(5-(Cyclopropylsulfonyl)-2-(4-fluorophenyl)-4,5,6,7-tetrahydropyrazolo[1,5-a]pyrazin-3-yl)imidazo[1,2-b]pyridazin-2-yl)-2-fluoroisonicotinamide], the figures for the IC50 in assay [1] and in assay [2] were 1.2 nM and 0.1 nM, respectively.

Consider `O=C(Nc1cn2nc(-c3c(-c4ccc(F)cc4)nn4c3CN(S(=O)(=O)c3ccc(F)cc3)CC4)ccc2n1)c1ccnc(F)c1` [Example 37, 2-Fluoro-N-(6-(2-(4-fluorophenyl)-5-((4-fluorophenyl)sulfonyl)-4,5,6,7-tetrahydropyrazolo [1,5-a]pyrazin-3-yl)imidazo [1,2-b]pyridazin-2-yl) isonicotinamide], for which the IC50 in assay [1] was 14 nM; in assay [2], 1.1 nM.

Turning to `O=C(Nc1cn2nc(-c3c(-c4ccc(F)cc4)nn4c3CN(S(=O)(=O)c3cccc(F)c3)CC4)ccc2n1)c1ccnc(F)c1` [Example 38, 2-Fluoro-N-(6-(2-(4-fluorophenyl)-5-((3-fluorophenyl)sulfonyl)-4,5,6,7-tetrahydropyrazolo [1,5-a]pyrazin-3-yl)imidazo [1,2-b]pyridazin-2-yl) isonicotinamide], the IC50 in assay [1] is 4.9 nM; in assay [2] it was 0.3 nM.

Regarding `Cn1cnc(S(=O)(=O)N2CCn3nc(-c4ccc(F)cc4)c(-c4ccc5nc(NC(=O)c6ccnc(F)c6)cn5n4)c3C2)c1` [Example 39, 2-Fluoro-N-(6-(2-(4-fluorophenyl)-5-((1-methyl-1H-imidazol-4-yl)sulfonyl)-4,5,6,7-tetrahydropyrazolo [1,5-a]pyrazin-3-yl)imidazo [1,2-b]pyridazin-2-yl) isonicotinamide], the IC50 in assay [1] was 4.6 nM; in assay [2], 0.4 nM.

`O=C(Nc1cn2nc(-c3c(-c4ccc(F)cc4)nn4c3CN(S(=O)(=O)Cc3ccccc3)CC4)ccc2n1)c1ccnc(F)c1` [Example 40, N-(6-(5-(Benzylsulfonyl)-2-(4-fluorophenyl)-4,5,6,7-tetrahydropyrazolo[1,5-a]pyrazin-3-yl)imidazo[1,2-b]pyridazin-2-yl)-2-fluoroisonicotinamide]: the results for the IC50 in assay [1] and in assay [2] were 10.3 nM and 2.8 nM, respectively.

Consider `CC(C)(C)NC(=O)N1CCn2nc(-c3ccc(F)cc3)c(-c3ccc4nc(NC(=O)c5ccnc(F)c5)cn4n3)c2C1` [Example 41, N-(tert-Butyl)-3-(2-(2-fluoroisonicotinamido)imidazo[1,2-b]pyridazin-6-yl)-2-(4-fluorophenyl)-6,7-dihydropyrazolo[1,5-a]pyrazine-5 (4)-carboxamide], for which the IC50 was determined as 20.5 nM in assay [1] and 2.8 nM in assay [2].

With `CC(C)NC(=O)N1CCn2nc(-c3ccc(F)cc3)c(-c3ccc4nc(NC(=O)c5ccnc(F)c5)cn4n3)c2C1` [Example 42, 3-(2-(2-Fluoroisonicotinamido)imidazo[1,2-b]pyridazin-6-yl)-2-(4-fluorophenyl)-N-isopropyl-6,7-dihydropyrazolo[1,5-a] pyrazine-5(4H)-carboxamide], the IC50 turned out to be 9.5 nM in assay [1] and 0.8 nM in assay [2].

Take `O=C(Nc1cn2nc(-c3c(-c4ccc(F)cc4)nn4c3CN(C(=O)NC3CCCCC3)CC4)ccc2n1)c1ccnc(F)c1` [Example 43, N-Cyclohexyl-3-(2-(2-fluoroisonicotinamido)imidazo [1,2-b]pyridazin-6-yl)-2-(4-fluorophenyl)-6,7-dihydropyrazolo[1,5-a]pyrazine-5(4H)-carboxamide]: the values for the IC50 in assay [1] and in assay [2] were 24 nM and 1.6 nM, respectively.

As for `O=C(Nc1cn2nc(-c3c(-c4ccc(F)cc4)nn4c3CN(C(=O)NC3CCCC3)CC4)ccc2n1)c1ccnc(F)c1` [Example 44, N-Cyclopentyl-3-(2-(2-fluoroisonicotinamido)imidazo [1,2-b]pyridazin-6-yl)-2-(4-fluorophenyl)-6,7-dihydropyrazolo[1,5-a]pyrazine-5(4H)-carboxamide], the IC50 came out at 13.9 nM in assay [1] and 2 nM in assay [2].

Take `O=C(Nc1cn2nc(-c3c(-c4ccc(F)cc4)nn4c3CN(C(=O)NC35CC6CC(CC(C6)C3)C5)CC4)ccc2n1)c1ccnc(F)c1` [Example 45, N-(Adamantan-1-yl)-3-(2-(2-fluoroisonicotinamido)imidazo [1,2-b]pyridazin-6-yl)-2-(4-fluorophenyl)-6,7-dihydropyrazolo[1,5-a]pyrazine-5(4H)-carboxamide]: the values for the IC50 in assay [1] and in assay [2] were 154 nM and 19.2 nM, respectively.

In the case of `O=C(Nc1cn2nc(-c3c(-c4ccc(F)cc4)nn4c3CN(C(=O)NC3CC3)CC4)ccc2n1)c1ccnc(F)c1` [Example 46, N-Cyclopropyl-3-(2-(2-fluoroisonicotinamido)imidazo[1,2-b]pyridazin-6-yl)-2-(4-fluorophenyl)-6,7-dihydropyrazolo[1,5-a]pyrazine-5(4H)-carboxamide], the IC50 came to 2.5 nM in assay [1] and 0.4 nM in assay [2].

Take `O=C(Nc1cn2nc(-c3c(-c4ccc(F)cc4)nn4c3CN(C(=O)Nc3ccc(C(F)(F)F)cc3)CC4)ccc2n1)c1ccnc(F)c1` [Example 47, 3-(2-(2-Fluoroisonicotinamido)imidazo[1,2-b]pyridazin-6-yl)-2-(4-fluorophenyl)-N-(4-(trifluoromethyl)phenyl)-6,7-dihydropyrazolo[1,5-a]pyrazine-5(4H)-carboxamide]: the IC50 in assay [1] worked out at 146 nM; in assay [2], 12 nM.

Consider `O=C(Nc1cn2nc(-c3c(-c4ccc(F)cc4)nn4c3CN(C(=O)NCC(F)(F)F)CC4)ccc2n1)c1ccnc(F)c1` [Example 48, 3-(2-(2-Fluoroisonicotinamido)imidazo[1,2-b]pyridazin-6-yl)-2-(4-fluorophenyl)-N-(2,2,2-trifluoroethyl)-6,7-dihydropyrazolo[1,5-a]pyrazine-5(4H)-carboxamide], for which the results for the IC50 in assay [1] and in assay [2] were 5.6 nM and 0.4 nM, respectively.

In the case of `O=C(Nc1cn2nc(-c3c(-c4ccc(F)cc4)nn4c3CN(C(=O)Nc3ccncc3)CC4)ccc2n1)c1ccnc(F)c1` [Example 49, 3-(2-(2-Fluoroisonicotinamido)imidazo[1,2-b]pyridazin-6-yl)-2-(4-fluorophenyl)-N-(pyridin-4-yl)-6,7-dihydropyrazolo[1,5-a]pyrazine-5(4H)-carboxamide], the results for the IC50 in assay [1] and in assay [2] were 7.3 nM and 0.7 nM, respectively.

Take `O=C(Nc1cn2nc(-c3c(-c4ccc(F)cc4)nn4c3CN(C(=O)NCCC(F)(F)F)CC4)ccc2n1)c1ccnc(F)c1` [Example 50, 3-(2-(2-Fluoroisonicotinamido)imidazo[1,2-b]pyridazin-6-yl)-2-(4-fluorophenyl)-N-(3,3,3-trifluoropropyl)-6,7-dihydropyrazolo[1,5-a] pyrazine-5(4H)-carboxamide]: the IC50 in assay [1] was found to be 9.3 nM; in assay [2] it was 0.7 nM.
